Test results: patent publication US9669003B2, “Use of flavone and flavanone derivatives in preparation of sedative and hypnotic drugs” (priority 2012, dated 2017)
Marks after values point to notes of the source that are not given here.

How the values were obtained:
Type in all cases: in vivo
Kunming mice [1] = assay: Influence on hypnosis effect with pentobarbital sodium doses below the threshold (25 mg/kg i.p.); settings: pentobarbital sodium 25 mg/kg i.p. 60 min later, sleep observed in 30 min, n = 10
How it was run: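 Kunming mice (10 per group, half female) given single oral doses of 25, 50 or 100 mg/kg in 0.5% CMC-Na; 60 min later pentobarbital sodium 25 mg/kg i.p. Sleep (righting reflex lost >1 min) scored within 30 min as percentage asleep, χ2 test.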

Kunming mice [2] = assay: Influence on autonomic activity of normal mice (ZIL-2 mice autonomic activity meter, counts within 10 min); settings: intragastric, x ± s, n = 10; for Times of activities in 1 h after drug administration/10 min: 1 h after administration; for Times of activities in 2 h after drug administration/10 min: 2 h after administration; for Times of activities in 24 h after drug administration/10 min: 24 h after administration
How it was run: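 Kunming mice (10 per group, half each sex) were dosed at 25, 50 or 100 mg/kg in 0.5% CMC-Na. Spontaneous activity counts over 10 min were recorded at 1 h, 2 h and 24 h post-dose. Groups were compared by ANOVA with Dunnett's test after Levene's check.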

Kunming mice [3] = assay: Influence on hypnosis effect with pentobarbital sodium doses at the threshold (50 mg/kg i.p.); settings: pentobarbital sodium 50 mg/kg i.p. 60 min later, x ± s, n = 10
How it was run: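 Kunming mice (10/group, half each sex) received compound in 0.5% CMC-Na intragastrically at 25, 50 or 100 mg/kg; 60 min later given 0.3% sodium pentobarbital 50 mg/kg i.p. Sleep latency and duration recorded by loss of righting reflex over 1 min; ANOVA and χ2 for sleep incidence.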

[4] = test drug 25 mg/kg intragastric single dose
[5] = test drug 50 mg/kg intragastric single dose
[6] = test drug 100 mg/kg intragastric single dose
[7] = 25 mg/kg intragastric single dose
[8] = 50 mg/kg intragastric single dose
[9] = 100 mg/kg intragastric single dose

| SMILES | Number of sleeping animals (Kunming mice [1]; [4]) | rate of sleeping (%) (Kunming mice [1]; [4]) | Number of sleeping animals (Kunming mice [1]; [5]) | rate of sleeping (%) (Kunming mice [1]; [5]) | Number of sleeping animals (Kunming mice [1]; [6]) | rate of sleeping (%) (Kunming mice [1]; [6]) | Times of activities in 1 h after drug administration/10 min (Kunming mice [2]; 25 mg/kg) | Times of activities in 2 h after drug administration/10 min (Kunming mice [2]; 25 mg/kg) | Times of activities in 24 h after drug administration/10 min (Kunming mice [2]; 25 mg/kg) | Times of activities in 1 h after drug administration/10 min (Kunming mice [2]; 50 mg/kg) | Times of activities in 2 h after drug administration/10 min (Kunming mice [2]; 50 mg/kg) | Times of activities in 24 h after drug administration/10 min (Kunming mice [2]; 50 mg/kg) | Times of activities in 1 h after drug administration/10 min (Kunming mice [2]; 100 mg/kg) | Times of activities in 2 h after drug administration/10 min (Kunming mice [2]; 100 mg/kg) | Times of activities in 24 h after drug administration/10 min (Kunming mice [2]; 100 mg/kg) | duration of sleep (Kunming mice [3]; [7]) | time to sleep (Kunming mice [3]; [7]) | duration of sleep (Kunming mice [3]; [8]) | time to sleep (Kunming mice [3]; [8]) | duration of sleep (Kunming mice [3]; [9]) | further results |
| --- | --- | --- | --- | --- | --- | --- | --- | --- | --- | --- | --- | --- | --- | --- | --- | --- | --- | --- | --- | --- | --- |
| COc1cc(OC)c2c(=O)cc(-c3cc(OC)c(OC)c(OC)c3)oc2c1 [Example 1, 5,7,3′,4′,5′-penta methoxyl-flavone] | 5 | 50** % | 7 | 70** % | 10 | 100*** % | 215.3 ± 40.1 /10 min | 211.2 ± 36.3 /10 min | 274.4 ± 81.2 /10 min | 137.1 ± 52.3 /10 min | 168.5 ± 57.9 /10 min | 275.2 ± 79.3 /10 min | 98.2 ± 41.9 /10 min | 96.2 ± 55.7 /10 min | 301.2 ± 80.7 /10 min | 65.42 ± 27.30 min | 3.84 ± 1.65 min | 78.60 ± 14.67 min | 3.54 ± 1.44 min | 98.33 ± 21.63 min | time to sleep (Kunming mice [3]; [9]): 2.75 ± 1.62 min |
| N#Cc1cc(-c2cc(=O)c3c(N)cc(F)cc3o2)ccc1O [Example 37] | 3 | 30% | 6 | 60** % | 7 | 70** % | 321.4 ± 62.4 /10 min | 288.0 ± 38.9 /10 min | 335.3 ± 65.2 /10 min | 279.7 ± 46.3 /10 min | 259.5 ± 46.5 /10 min | 333.8 ± 87.8 /10 min | 277.3 ± 45.7 /10 min | 222.8 ± 43.2 /10 min | 317.8 ± 62.3 /10 min | 30.27 ± 22.71 min | 4.99 ± 1.97 min | 40.03 ± 20.58 min | 3.98 ± 1.46 min | 57.51 ± 25.63 min | time to sleep (Kunming mice [3]; [9]): 3.88 ± 1.43 min |
| CCCc1cc2c(=O)cc(-c3ccc(C(=O)O)c(C(N)=O)c3)oc2c(I)c1CCS(=O)(=O)O [Example 35] | 4 | 40* % | 6 | 60** % | 7 | 70** % | 336.84 ± 57.8 /10 min | 278.8 ± 49.0 /10 min | 307.4 ± 69.8 /10 min | 310.3 ± 48.9 /10 min | 244.8 ± 39.6 /10 min | 308.1 ± 954 /10 min | 266.8 ± 50.1 /10 min | 219.6 ± 47.7 /10 min | 321.5 ± 72.9 /10 min | 38.25 ± 15.16 min | 4.35 ± 1.42 min | 57.54 ± 28.39 min | 3.88 ± 1.16 min | 58.38 ± 26.82 min | time to sleep (Kunming mice [3]; [9]): 3.76 ± 1.49 min |
| C=Cc1cc2c(=O)cc(-c3ccc(CC)c(N)c3)oc2c(C2CCSC2)c1C(N)=O (stereo not drawn) [Example 30] | 5 | 50** % | 6 | 60** % | 8 | 80*** % | 289.2 ± 45.7 /10 min | 264.1 ± 42.2 /10 min | 302.2 ± 87.3 /10 min | 235.8 ± 42.1 /10 min | 244.5 ± 48.2 /10 min | 294.5 ± 70.6 /10 min | 134.6 ± 35.7 /10 min | 173.5 ± 39.2 /10 min | 288.8 ± 92.1 /10 min | 38.82 ± 15.41 min | 4.37 ± 1.58 min | 43.66 ± 21.43 min | 3.73 ± 1.22 min | 58.74 ± 19.57 min | time to sleep (Kunming mice [3]; [9]): 3.25 ± 1.31 min |
| COc1cc(C2Oc3c(OC)c(OC)c(OC)c(O)c3C(=O)C2OC)c(OC)c(OC)c1OC (stereo not drawn) [Example 68, 5-hydroxyl-3,6,7,8,3′,4′,5′,6′-octa methoxyl-flavanone] | 3 | 30% | 4 | 40* % | 6 | 60** % | 287.3 ± 47.9 /10 min | 267.7 ± 40.4 /10 min | 322.9 ± 76.0 /10 min | 248.2 ± 57.4 /10 min | 243.2 ± 54.6 /10 min | 319.6 ± 75.9 /10 min | 128.2 ± 30.9 /10 min | 241.7 ± 40.9 /10 min | 298.1 ± 80.2 /10 min | 20.69 ± 25.22 min | 5.36 ± 2.23 min | 29.78 ± 28.77 min | 5.09 ± 2.44 min | 64.55 ± 47.91 min | time to sleep (Kunming mice [3]; [9]): 3.31 ± 1.14 min |
| O=c1cc(-c2cc(O)c(Oc3ccccc3)c(CCCCCCCCCCCCCCCCCCCCCl)c2)oc2cc(C#Cc3ccccc3)cc([N+](=O)[O-])c12 [Example 16] | 2 | 20% | 4 | 40* % | 6 | 60** % | 319.2 ± 55.4 /10 min | 290.6 ± 41.2 /10 min | 313.5 ± 68.2 /10 min | 295.5 ± 41.3 /10 min | 250.4 ± 41.4 /10 min | 314.1 ± 82.3 /10 min | 273.4 ± 48.3 /10 min | 224.7 ± 46.3 /10 min | 324.7 ± 79.7 /10 min | 25.69 ± 27.26 min | 5.48 ± 2.25 min | 48.11 ± 25.41 min | 4.21 ± 1.53 min | 55.62 ± 19.72 min | time to sleep (Kunming mice [3]; [9]): 3.86 ± 1.45 min |
| Cc1cc(C2CC(=O)c3c(cccc3[N+](=O)[O-])O2)ccc1Oc1ccccc1 (stereo not drawn) [Example 63] | 6 | 60** % | 8 | 80*** % | 9 | 90*** % | 250.6 ± 35.5 /10 min | 239.3 ± 34.6 /10 min | 269.5 ± 79.5 /10 min | 168.5 ± 53.0 /10 min | 151.3 ± 57.0 /10 min | 283.8 ± 79.3 /10 min | 124.5 ± 42.0 /10 min | 117.3 ± 54.8 /10 min | 320.3 ± 76.0 /10 min | 47.87 ± 14.62 min | 3.43 ± 1.46 min | 62.64 ± 22.64 min | 3.09 ± 1.41 min | 87.42 ± 18.53 min | time to sleep (Kunming mice [3]; [9]): 2.33 ± 1.27 min |
